For assay [1], the target named is T1, Suppressor of tumorigenicity 14 protein (Homo sapiens, UniProt Q9Y5Y6).
T1 sequence (Q9Y5Y6 whole entry): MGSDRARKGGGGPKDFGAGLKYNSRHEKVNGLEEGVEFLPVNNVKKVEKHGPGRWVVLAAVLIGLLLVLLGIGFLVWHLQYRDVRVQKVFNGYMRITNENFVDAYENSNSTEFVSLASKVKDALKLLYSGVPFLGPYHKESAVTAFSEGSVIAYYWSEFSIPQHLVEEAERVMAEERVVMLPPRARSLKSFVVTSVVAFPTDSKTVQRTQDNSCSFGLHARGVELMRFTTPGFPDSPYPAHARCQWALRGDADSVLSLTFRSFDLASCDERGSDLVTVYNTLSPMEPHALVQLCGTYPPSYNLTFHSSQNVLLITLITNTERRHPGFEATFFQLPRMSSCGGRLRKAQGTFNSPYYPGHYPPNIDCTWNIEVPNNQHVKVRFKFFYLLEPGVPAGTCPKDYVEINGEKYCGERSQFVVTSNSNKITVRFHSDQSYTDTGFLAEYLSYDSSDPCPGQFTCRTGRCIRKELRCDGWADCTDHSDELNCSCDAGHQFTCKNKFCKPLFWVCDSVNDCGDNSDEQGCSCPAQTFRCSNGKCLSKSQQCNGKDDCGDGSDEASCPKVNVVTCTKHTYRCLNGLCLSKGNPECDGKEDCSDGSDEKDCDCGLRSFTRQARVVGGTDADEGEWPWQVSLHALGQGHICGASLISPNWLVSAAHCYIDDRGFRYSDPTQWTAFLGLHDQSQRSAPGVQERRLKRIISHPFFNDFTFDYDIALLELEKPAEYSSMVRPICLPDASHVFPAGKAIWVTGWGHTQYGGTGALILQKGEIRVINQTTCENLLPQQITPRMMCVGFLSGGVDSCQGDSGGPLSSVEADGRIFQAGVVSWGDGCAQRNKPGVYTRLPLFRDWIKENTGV
As to the kind of experiment: Inhibition of matriptase.

Assay [2] deals with Prothrombin (Homo sapiens, UniProt P00734). As to the kind of experiment: Inhibition of thrombin.
Assay [3] deals with Coagulation factor X (Homo sapiens, UniProt P00742). As to the kind of experiment: Inhibition of factor 10a.
Assay [4] deals with Plasminogen (Homo sapiens, UniProt P00747). As to the kind of experiment: Inhibition of plasmin.
The target in assay [5] is Urokinase-type plasminogen activator (Homo sapiens, UniProt P00749). As to the kind of experiment: Inhibition of uPA.

SMILES strings stand for the structures.

This passage reports Ki results from ChEMBL document CHEMBL1139302, “Modification of the N-terminal sulfonyl residue in 3-amidinophenylalanine-based matriptase inhibitors” (Bioorg Med Chem Lett, 2009).

Plasminogen, sequence (P00747 97-580 limits assumed): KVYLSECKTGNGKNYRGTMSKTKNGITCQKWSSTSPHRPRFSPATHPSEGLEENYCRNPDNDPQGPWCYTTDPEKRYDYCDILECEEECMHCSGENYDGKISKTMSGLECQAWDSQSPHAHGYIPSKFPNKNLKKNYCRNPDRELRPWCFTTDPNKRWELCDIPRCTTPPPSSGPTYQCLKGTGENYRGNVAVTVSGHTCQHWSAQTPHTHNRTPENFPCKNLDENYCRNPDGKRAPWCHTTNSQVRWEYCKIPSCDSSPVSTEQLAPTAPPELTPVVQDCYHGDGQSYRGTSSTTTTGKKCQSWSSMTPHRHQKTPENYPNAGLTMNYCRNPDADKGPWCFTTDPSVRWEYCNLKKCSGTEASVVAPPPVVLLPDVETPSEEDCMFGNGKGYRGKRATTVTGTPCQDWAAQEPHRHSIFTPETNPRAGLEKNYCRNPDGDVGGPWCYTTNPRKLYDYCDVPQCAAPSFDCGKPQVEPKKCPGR
Plasminogen, sequence (P00747 581-810 limits assumed): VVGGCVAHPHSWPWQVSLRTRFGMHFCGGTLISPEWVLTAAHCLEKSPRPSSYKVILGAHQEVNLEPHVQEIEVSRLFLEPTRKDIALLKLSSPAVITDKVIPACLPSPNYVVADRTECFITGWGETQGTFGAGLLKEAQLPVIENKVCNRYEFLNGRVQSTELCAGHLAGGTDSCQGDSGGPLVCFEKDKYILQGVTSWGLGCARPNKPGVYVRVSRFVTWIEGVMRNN
Coagulation factor X, sequence (P00742 41-179 limits assumed): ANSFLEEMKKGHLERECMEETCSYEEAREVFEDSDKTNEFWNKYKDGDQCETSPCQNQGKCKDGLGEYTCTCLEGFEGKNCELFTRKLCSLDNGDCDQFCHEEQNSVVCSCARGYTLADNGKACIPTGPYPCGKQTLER
Coagulation factor X, sequence (P00742 235-488 limits assumed): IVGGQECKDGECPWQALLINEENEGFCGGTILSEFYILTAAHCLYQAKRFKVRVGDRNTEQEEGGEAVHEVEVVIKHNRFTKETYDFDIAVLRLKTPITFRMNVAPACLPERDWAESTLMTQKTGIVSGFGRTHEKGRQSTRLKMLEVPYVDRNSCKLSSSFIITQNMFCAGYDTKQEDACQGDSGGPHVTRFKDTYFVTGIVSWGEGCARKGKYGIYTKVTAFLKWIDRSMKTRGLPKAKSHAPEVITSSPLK

A word on the Ki: it is a dissociation constant, usually derived from enzyme kinetics or from competition with a known ligand. Low values mean higher affinity, high ones lower affinity. In assay [1], `N=C(N)c1cccc(C[C@H](NS(=O)(=O)c2cccc(NC(=O)CCN)c2)C(=O)N2CCC(CCN)CC2)c1` yielded a Ki of 0.0038 µM.

`NCCC(=O)Nc1cccc(S(=O)(=O)N[C@@H](CCc2ccccc2)C(=O)N2CCC(CCN)CC2)c1` yielded an inhibitory constant (Ki) in assay [1] above 1000 µM.

Turning to `NCCC(=O)Nc1cccc(S(=O)(=O)N[C@@H](Cc2cccc(CN)c2)C(=O)N2CCC(CCN)CC2)c1`, the inhibition constant Ki in assay [2] was above 1000 µM; in assay [3] it was 92 µM; in assay [4], 16 µM; in assay [5], above 1000 µM.

Consider `N=C(N)c1cccc(C[C@H](NS(=O)(=O)c2cccc(-c3ccc(N)nc3)c2)C(=O)N2CCC(CCN)CC2)c1`, for which the Ki in assay [2] was 0.11 µM; in assay [3] it was 0.25 µM; in assay [4], 0.23 µM; in assay [1], 0.0016 µM; in assay [5], 3.6 µM.

For `CCC(=O)Nc1cccc(S(=O)(=O)N[C@@H](Cc2cccc(C(=N)N)c2)C(=O)N2CCC(CCN)CC2)c1`, the inhibition constant (Ki) in assay [2] is 1.9 µM; in assay [3], 20 µM; in assay [4], 3.5 µM; in assay [1], 0.18 µM; in assay [5], 8.1 µM.

Turning to `CCOC(=O)Nc1cccc(S(=O)(=O)N[C@@H](Cc2cccc(C(=N)N)c2)C(=O)N2CCC(CCN)CC2)c1`, the inhibition constant Ki in assay [2] was determined as 1.2 µM; in assay [3] it was 14 µM; in assay [4], 2.1 µM; in assay [1], 0.041 µM; in assay [5], 3.2 µM.

Regarding `N=C(N)c1cccc(C[C@H](NS(=O)(=O)c2cccc(NC(=O)C3CNC3)c2)C(=O)N2CCC(CCN)CC2)c1`, the Ki in assay [2] amounted to 5.1 µM; in assay [3], 11.2 µM; in assay [4], 0.5 µM; in assay [1] it was 0.003 µM; in assay [5] it was 3.7 µM.

Take `NCCC(=O)Nc1cccc(S(=O)(=O)N[C@@H](Cc2ccc(CN)cc2)C(=O)N2CCC(CCN)CC2)c1`: the Ki in assay [2] was 325 µM; in assay [3], 430 µM; in assay [4] it was 64.8 µM; in assay [1] it was 2.8 µM; in assay [5] it was above 1000 µM.

In the case of `N=C(N)c1cccc(C[C@H](NS(=O)(=O)c2cccc(CCCCN)c2)C(=O)N2CCC(CCN)CC2)c1`, the Ki in assay [2] amounted to 0.46 µM; in assay [3], 4.4 µM; in assay [4], 0.2 µM; in assay [1], 0.001 µM; in assay [5], 3.8 µM.

`N=C(N)c1cccc(C[C@H](NS(=O)(=O)c2cccc(C3CCC(N)=NC3)c2)C(=O)N2CCC(CCN)CC2)c1` (stereo partly specified): the Ki in assay [2] turned out to be 0.52 µM; in assay [3] it was 0.01 µM; in assay [4], 0.028 µM; in assay [1] it was 8e-05 µM; in assay [5], 6.6 µM.

For the compound `N=C(N)c1cccc(C[C@H](NS(=O)(=O)c2cccc(NCCCN)c2)C(=O)N2CCC(CCN)CC2)c1`, the Ki worked out at 2.2 µM in assay [2]; 8 µM in assay [3]; 0.46 µM in assay [4]; 0.0067 µM in assay [1]; 5.2 µM in assay [5].

For `Cc1nccc(-c2cccc(S(=O)(=O)N[C@@H](Cc3cccc(C(=N)N)c3)C(=O)N3CCC(CCN)CC3)c2)n1`, the Ki in assay [2] was found to be 0.31 µM; in assay [3], 1.7 µM; in assay [4] it was 0.21 µM; in assay [5] it was 8.7 µM.

On to `N=C(N)c1cccc(C[C@H](NS(=O)(=O)c2cccc(NC(=O)CCO)c2)C(=O)N2CCC(CCN)CC2)c1`, for which the inhibition constant Ki was 5.5 µM in assay [2], 61 µM in assay [3], 2.6 µM in assay [4] and 3 µM in assay [5].

In assay [1], `NCCC(=O)Nc1cccc(S(=O)(=O)N[C@@H](Cc2ccccc2)C(=O)N2CCC(CCN)CC2)c1` yielded a Ki of 10 µM.

`NCCC(=O)Nc1cccc(S(=O)(=O)N[C@@H](CCCc2ccccc2)C(=O)N2CCC(CCN)CC2)c1` gave a Ki in assay [1] above 1000 µM.

With `COc1ccc(-c2cccc(S(=O)(=O)NC(Cc3cccc(C(=N)N)c3)C(=O)N3CCC(CCN)CC3)c2)cc1OC` (racemic), the inhibition constant (Ki) in assay [2] was 1.1 µM; in assay [3], 0.42 µM; in assay [4], 0.23 µM; in assay [5], 14 µM.

With `COc1ccc(-c2cccc(S(=O)(=O)NC(Cc3cccc(C(=N)N)c3)C(=O)N3CCC(CCN)CC3)c2)cc1` (racemic), the inhibitory constant (Ki) in assay [2] stood at 0.04 µM; in assay [3] it was 0.36 µM; in assay [4], 0.12 µM; in assay [1], 0.007 µM; in assay [5], 10 µM.

With `CCc1ccc(-c2cccc(S(=O)(=O)NC(Cc3cccc(C(=N)N)c3)C(=O)N3CCC(CCN)CC3)c2)cc1` (racemic), the Ki is 0.033 µM in assay [2], 0.63 µM in assay [3], 0.214 µM in assay [4] and 6.9 µM in assay [5].

As for `N=C(N)c1cccc(CC(NS(=O)(=O)c2cccc(-c3ccccc3)c2)C(=O)N2CCC(CCN)CC2)c1` (racemic), the inhibition constant (Ki) in assay [2] is 0.056 µM; in assay [3], 5.4 µM; in assay [4], 0.55 µM; in assay [1], 0.11 µM; in assay [5], 8.3 µM.

On to `COc1ccc(-c2cccc(S(=O)(=O)NC(Cc3cccc(CN)c3)C(=O)N3CCC(CCN)CC3)c2)cc1` (racemic), for which the inhibition constant (Ki) in assay [2] worked out at 9.8 µM; in assay [3] it was 55 µM; in assay [4], 0.776 µM; in assay [5] it was 129 µM.

Regarding `N=C(N)c1cccc(CC(NS(=O)(=O)c2cccc(-c3cccc(Cl)c3)c2)C(=O)N2CCC(CCN)CC2)c1` (racemic), the Ki amounted to 0.051 µM in assay [2], 5.6 µM in assay [3], 0.334 µM in assay [4] and 12 µM in assay [5].

For `N=C(N)c1cccc(CC(NS(=O)(=O)c2cccc(-c3ccncc3)c2)C(=O)N2CCC(CCN)CC2)c1` (racemic), the inhibitory constant (Ki) in assay [2] amounted to 0.16 µM; in assay [3], 1.6 µM; in assay [4], 0.11 µM; in assay [5], 3.7 µM.

Turning to `N=C(N)c1cccc(CC(NS(=O)(=O)c2cccc(-c3cccnc3)c2)C(=O)N2CCC(CCN)CC2)c1` (racemic), the Ki in assay [2] turned out to be 0.15 µM; in assay [3], 3.5 µM; in assay [4] it was 1 µM; in assay [5] it was 11 µM.

Consider `CC(C)Oc1ccc(-c2cccc(S(=O)(=O)NC(Cc3cccc(C(=N)N)c3)C(=O)N3CCC(CCN)CC3)c2)cc1` (racemic), for which the Ki in assay [2] came out at 0.24 µM; in assay [3] it was 3.4 µM; in assay [4] it was 0.08 µM; in assay [5] it was 9.6 µM.

As for `N=C(N)c1cccc(CC(NS(=O)(=O)c2cccc(-c3ccc4[nH]ccc4c3)c2)C(=O)N2CCC(CCN)CC2)c1` (racemic), the Ki in assay [2] turned out to be 0.19 µM; in assay [3], 0.15 µM; in assay [4], 0.38 µM; in assay [5], 6.2 µM.

`N=C(N)c1cccc(CC(NS(=O)(=O)c2cccc(-c3ccccc3Cl)c2)C(=O)N2CCC(CCN)CC2)c1` (racemic): the inhibitory constant (Ki) in assay [2] came out at 0.011 µM; in assay [3], 0.7 µM; in assay [4], 0.085 µM; in assay [5], 12 µM.

Take `N=C(N)c1cccc(CC(NS(=O)(=O)c2cccc(-c3ccc(Cl)cc3)c2)C(=O)N2CCC(CCN)CC2)c1` (racemic): the Ki in assay [2] was found to be 0.01 µM; in assay [3], 0.91 µM; in assay [4], 0.183 µM; in assay [5] it was 11 µM.

For `CCOc1ccc(-c2cccc(S(=O)(=O)NC(Cc3cccc(C(=N)N)c3)C(=O)N3CCC(CCN)CC3)c2)cc1` (racemic), the Ki in assay [2] turned out to be 0.45 µM; in assay [3], 0.66 µM; in assay [4], 0.15 µM; in assay [1], 0.006 µM; in assay [5], 8.6 µM.
